From PubChem BioAssay (NCI)
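Interpolation was linear, between the two tested concentrations surrounding the appropriate level; five concentrations were tested over 48 hours in 96-well plates. Here, GI50 denotes the concentration required for 50% inhibition of growth. TGI denotes the concentration required for complete inhibition of growth.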

Columns and labels:
Assay in all cases: NCI anticancer screen, dose series, 48 h
UO-31 renal = system: UO-31 renal
NCI-H522 lung = system: NCI-H522 lung
HCT-116 colon = system: HCT-116 colon
SR leukemia = system: SR leukemia
NCI-H460 lung = system: NCI-H460 lung
SK-MEL-5 melanoma = system: SK-MEL-5 melanoma
IGROV1 ovarian = system: IGROV1 ovarian
SK-OV-3 ovarian = system: SK-OV-3 ovarian

Compound	TGI (UO-31 renal) [µM]	TGI (NCI-H522 lung) [µM]	TGI (HCT-116 colon) [µM]	TGI (SR leukemia) [µM]	TGI (NCI-H460 lung) [µM]	TGI (SK-MEL-5 melanoma) [µM]	TGI (IGROV1 ovarian) [µM]	TGI (SK-OV-3 ovarian) [µM]	GI50 (NCI-H522 lung) [µM]	GI50 (HCT-116 colon) [µM]	GI50 (NCI-H460 lung) [µM]	GI50 (SK-MEL-5 melanoma) [µM]	GI50 (IGROV1 ovarian) [µM]	GI50 (SK-OV-3 ovarian) [µM]
CCOC(=O)c1cc2c(cn1)[nH]c1cccc(N)c12	> 100	> 100	> 100	> 100	> 100	> 100	> 100							
O=c1cc(-c2ccccc2)nc(/C=C(\O)c2ccncc2)n1-c1ccccc1	> 100	> 100	> 100		> 100	> 100	> 100	> 100						
COC(=O)[C@@]1(O)CC(C)C=C1C=O (stereo partly drawn)	> 100	94.9	38.4	> 100	42.1	> 100	> 100	> 100						
CN(C(=O)C12C3(C(=O)C(C)(C)C)C4C5(C#N)C3C1(C(=O)C(C)(C)C)C5C42C(=O)C(C)(C)C)C(C)(C)C (stereo not drawn)	> 50	> 50	> 50	> 50	> 50	> 50	> 50	> 50						
CCCCCCCCC(O)C#CC(N)=O (stereo not drawn)	21.6		16.6	52.9	22	24.3								
Cc1ccc(-c2cc(=O)c3cc(C)c(C)c(C(=O)O)c3o2)cc1	> 100	54.5	> 100		> 100	> 100	> 100	> 100						
C/C(CC(=O)Nc1ccc(Cl)cc1)=N\NC(=O)C[n+]1ccccc1	> 100	> 100	> 100		> 100	> 100	> 100	> 100						
CC(C)(O)[C@@H]1CC[C@@]2(C)CCC[C@H](O)[C@H]2C1	> 100	> 100	> 100	> 100	> 100	> 100	> 100	> 100						
O=C1C2CC=CCC2C(=O)C12CCc1ccccc12 (stereo not drawn)	> 100				> 100		> 100	> 100						
CN(C)C(=S)/N=c1\ss/c(=N\C(=S)N(C)C)n1-c1ccc(Cl)cc1	> 100	> 100	> 100	> 100	> 100		> 100	> 100						
O=C1[C@H]2ON(c3ccccc3)C(c3ccccc3F)[C@H]2C(=O)N1c1ccc(Cc2ccc(N3C(=O)[C@@H]4ON(c5ccccc5)C(c5ccccc5F)[C@@H]4C3=O)cc2)cc1 (stereo partly drawn)	> 100				> 100	> 100	> 100	> 100						
Cc1ccc(C(=O)N2c3ccccc3N(C)n3cccc3C2CC(=O)O)cc1 (stereo not drawn)	> 100	> 100			> 100	> 100	> 100							
CCOc1ccccc1N1C(=O)C(=O)C(c2nc3ccccc3o2)/C(=N\N)C1=O (stereo not drawn)	91	> 100	> 100			> 100	> 100	> 100						
CC1=C(C(=O)Nc2ccc([N+](=O)[O-])cc2)C(c2ccccc2O)C(C(=O)Nc2ccc([N+](=O)[O-])cc2)=C(C)N1	67.8	35.9			56.4	31.8	> 100	94.7						
COc1ccc(OC)c(NCC#N)c1	> 100	> 100	> 100		> 100	> 100	> 100	> 100						
COC1=C2C[C@H](O)C(C)C[C@@]2(OC)OC1=O (stereo partly drawn)	> 100	> 100	> 100		> 100	> 100	> 100	> 100						
CCO/C=C1\N=C(C(Cl)c2ccccc2)OC1=O (stereo not drawn)	> 100	> 100			> 100	> 100	> 100							
COc1cc([C@H]2c3cc4c(cc3[C@H](NCc3ccc([N+](=O)[O-])cc3)C3COC(=O)[C@H]32)OCO4)cc(OC)c1O (stereo partly drawn)	5.75		> 86.1		2.18	6.61	> 61.3	> 24.6						
CC(C)(c1ccc(Oc2ccc(C#N)c(C#N)c2)cc1)c1ccc(Oc2ccc(C#N)c(C#N)c2)cc1	> 100	> 100	> 100		> 100	> 100	> 100	> 100	> 100	> 100	> 100	> 100	> 100	> 100
NC(=O)C(=Cc1ccc(CP(=O)(O)O)cc1)C(N)=O	> 100	> 100	> 100		> 100	> 100	> 100	> 100						
O=c1nc(NC(c2ccccc2)(c2ccccc2)c2ccccc2)ccn1CCO	> 100	> 100	> 100	> 100	> 100		> 100							
COC(=O)c1ccc(NC(=O)c2cc(OC)c(OC)c(OC)c2)cc1	66.9	3.58	> 100	> 72.8	> 100		> 100	98.4						
